Data published in publication PMC3651789 (Current biology : CB, 2013).

How the values were obtained:
AEX-2/GPCR = molecular target: T1, AEX-2/GPCR (Caenorhabditis elegans, UniProt G5ECD9); experiment: In vitro cellular assay for AEX-2/GPCR activation by NLP-40-derived peptides; format: cell-based, C. elegans; conditions: for activation of AEX-2/GPCR (in words): CHO/mtAEQ/Gα16 cells transfected with AEX-2/GPCR, aequorin luminescence, all concentrations tested
T1 sequence (G5ECD9 1-321): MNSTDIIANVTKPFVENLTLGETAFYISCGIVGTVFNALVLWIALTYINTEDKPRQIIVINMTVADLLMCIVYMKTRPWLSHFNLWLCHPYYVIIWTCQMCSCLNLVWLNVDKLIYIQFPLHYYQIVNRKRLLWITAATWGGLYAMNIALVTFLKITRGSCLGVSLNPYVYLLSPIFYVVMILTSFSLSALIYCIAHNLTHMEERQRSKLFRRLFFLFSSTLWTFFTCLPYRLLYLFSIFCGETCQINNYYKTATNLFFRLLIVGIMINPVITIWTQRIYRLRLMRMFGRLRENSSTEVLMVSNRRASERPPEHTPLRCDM

[1] = system: enteric muscle contractions (Exp); experiment: Enteric muscle contraction; format: in vivo, C. elegans; conditions: peptide injection; data not shown

APSAPAGLEEKL [NLP-40 P1]
activation of AEX-2/GPCR (in words) (AEX-2/GPCR): failed to activate AEX-2/GPCR at all concentrations tested

MVAWQPM [NLP-40 P3-1]
induction of enteric muscle contractions (Exp) (in words) [1]: failed to induce robust enteric muscle contractions (Exp) | activation of AEX-2/GPCR (in words) (AEX-2/GPCR): able to activate AEX-2/GPCR | relative potency at AEX-2/GPCR (in words) (AEX-2/GPCR; CHO/mtAEQ/Gα16 cells, NLP-40 P3-1 compared to NLP-40 P3-2): more potent ligand for AEX-2/GPCR

VAWQPM [NLP-40 P3-2]
activation of AEX-2/GPCR (in words) (AEX-2/GPCR): able to activate AEX-2/GPCR
